Experimental data as given in EP4455142A1, “NOVEL INHIBITOR OF QPCTL AND/OR QC” (Scenic Immunology B.V., priority 2023, dated 2024).
Converted amounts (≈) assume the structure as drawn.

How the values were obtained:
human isoQC = target: T1, human isoQC (Homo sapiens, UniProt Q9NXS2); assay: Assay 1 - isoQC potency, fluorescent enzymatic assay (H-Gln-AMC, coupled pGAPase detection); assay type: biochemical; conditions: recombinant isoQC, 1 hour at 37°C
T1 construct: The Golgi luminal, enzymatically active region of human isoQC (S53-L382; see, e.g., Huang et al., 2011); GST (with enterokinase site) (N, cleaved yes); made in house; host or cells: E. coli
Excerpt: The Golgi luminal, enzymatically active region of human isoQC (S53-L382; see, e.g., Huang et al., 2011) was obtained by expression in E. coli of an N-terminally GST Enterokinase and C-terminally 6xHis tagged construct in the pET41(+) vector and subsequent purification using Ni-NTA IMAC. Enterokinase digestion ensued, followed by another Ni-NTA IMAC purification, Superdex75 based size exclusion and finally a spin concentration using a 10 kDa molecular weight cutoff. The final protein is formulated in 50 mM Tris-HCl, 150 mM NaCl, 50% Glycerol, pH 7.8.
(§1) Pyroglutamylation was measured by conversion of glutamine-4-amino-7-methylcoumarine (H-Gln-AMC, Bachem) to pyroglutamyl-AMC, which is subsequently a specific substrate for pyroglutamylaminopeptidase (pGAPase, Qiagen), releasing free AMC which can be fluorescently detected. For a typical inhibition assay, 7.5 µL aliquots of threefold dilutions of test compound in 50mM Tris pH8 buffer were plated in 384-well plates. 15 µL 20 µM hGln-AMC (diluted from a 40 mM stock dissolved in 25 mM HEPES using 50 mM Tris-HCl 25 pH 8.0) was added to each well. Finally, 7.5 µL, 3 ng/µL recombinant isoQC enzyme was added and the reaction mixture was incubated for 1 hour at 37°C. A 5 minute incubation at 98°C was then performed to denature the isoQC enzyme and stop the reaction.
To detect the amount of pyroglutamyl-AMC formed, a 0.125 U/mL pGAPase enzyme diluted in 50 mM Tris-HCl pH 8.0 containing 10 mM dithiothreitol (DTT) solution was prepared. 25 µL of the pyroglutamylation reaction mixture was transferred into an empty plate and to that, 25 µL of the pGAPase enzyme solution was added. Plates were then incubated for 25 minutes at room temperature before fluorescence readings were taken on an Envision2 plate reader with excitation set at 380 nm and emission at 450 nm. DMSO concentrations during the assay never exceeded 1% and activities were compared to controls containing only the same amount of DMSO and no test compound. Controls were taken along containing pyroglutamylated-AMC (Bachem, dissolved at 10 mM in DMSO) instead of H-Gln-AMC to control for pGAPase inhibition.
(§2) IC50 values are calculated using non-linear regression analysis with GraphPad Prism software.

[1] = Microsomal stability, dog (DLM); assay type: in vitro ADME; conditions: liver microsomes; (beagle) dog microsomes, 0.5 mg protein/mL, 1 µM test compound
Procedure: (§3) In order to assess metabolic stability of test compounds, commercially acquired CD-1 mouse liver microsome preparations were incubated in 100 µL at a final concentration of 0.5 mg protein/mL, 1 µM test compound, 0.99% methanol and 0.01% DMSO, after a 10 minute pre-incubation at 37°C and addition of 0.1 volumes 10 U/mL NADPH in 10 mM MgCl2. Reactions were stopped by addition of 300 µL cold acetonitrile containing internal standards at t = 0, 5, 10, 20, 30, and 60 minutes. Samples were submitted to LC-MS/MS analysis subsequently and the slope of linear regression of time versus In(% Remaining concentration) was derived to calculate t½ as t½= In(2) /(-Slope). Then Clint(mic) and Clint(liver) were calculated as follows: CLint(mk) = (0.693)/(In vitro T1/2) · (1)/(mg/mL microsomal protein in reaction system) [formula] CLint(liver) = CLint(mic) · (mg microsomes)/(g liver) · (g liver)/(kg body weight) [formula]
(§4) The same procedure was performed for human microsomes, SD rat microsomes and (beagle) dog microsomes.
Where 45 mg microsomal protein/g liver and 32 g liver/kg dog bodyweight were used as standardized parameters for […].

[2] = CACO-2-based cell-permeation and efflux; assay type: in vitro ADME; conditions: human, 2 µM compound, pH 7.40
Procedure: CACO-2 (ATCC, Manassas, VA, USA) monolayers on polyethylene membranes in 96-well insert plates were incubated for 2 hours in 5% C02, 37°C with 2 µM compound tested bidirectionally in duplicate using HBSS with 10 mM HEPES at pH 7.40 ±0.05 as transport buffer. Final DMSO Concentrations were adjusted to less than 1%. All samples were mixed with acetonitrile containing internal standard and centrifuged at 3220 x g for 10 minutes. Subsequently, 100 µL supernatant solution was diluted with 100 µL distilled water for LC/MS/MS analysis. Lucifer yellow rejection assays were applied after the transport assay to ensure CACO-2 cell monolayer integrity.
The apparent permeability coefficient Papp (cm/s) was calculated using the equation: Papp = (dCr/dt) × Vr/(A×CO) [formula] where dCr/dt is the cumulative concentration of compound in the receiver chamber as a function of time (µM/s); Vr is the solution volume in the receiver chamber (0.075 mL on the apical side, 0.25 mL on the basolateral side); A is the surface area for the transport, i.e., 0.0804 cm^2 or the area of the monolayer; CO is the initial concentration in the donor chamber (µM).

[3] = Microsomal stability, mouse (MLM); assay type: in vitro ADME, CD-1 mouse; conditions: mouse liver microsomes, 0.5 mg protein/mL, 1 µM test compound
Procedure: as §3
Where 45 mg microsomal protein/g liver and 88 g liver/kg mouse bodyweight were used as standardized parameters for mouse microsomes.

[4] = Microsomal stability, rat (RLM); assay type: in vitro ADME; conditions: liver microsomes; SD rat microsomes, 0.5 mg protein/mL, 1 µM test compound
Procedure: as §3, §4
Where 45 mg microsomal protein/g liver and 40 g liver/kg rat bodyweight were used as standardized parameters for rat microsomes.

recombinant QC enzyme = target: T2, recombinant QC enzyme (Homo sapiens, UniProt Q16769); assay: Assay 2 - QC potency, fluorescent enzymatic assay (H-Gln-AMC, coupled pGAPase detection); assay type: biochemical; conditions: 1 hour at 37°C
T2 construct: bacterial expression of residues 33-361 of uniprot ID Q16769, fused to a His tag; His tag (cleaved yes); made in house
Procedure: After scale-up, expression and lysis, protein was purified by Ni-NTA IMAC, dialysed in the presence of Factor Xa, further purified by Ni-NTA reverse IMAC and finally filtrated for size on a Superdex 200 16/60 column. Final protein was concentrated using a spin concentrator at 10 kDa molecular weight cut-off and formulated in 150 mM NaCl, 50 mM Tris-HCl, 50% Glycerol, pH 8.0.
as §1, with “50 mM” for “50mM”, “h-Gln-AMC” for “hGln-AMC”, “Tris-HCl” for “Tris-HCl 25”, “QC” for “isoQC”
25 µL of the pyroglutamylation reaction mixture was transferred into an empty plate and to that, 25 µL of the pGAPase enzyme solution was added. Plates were then incubated for 25 minutes at room temperature before fluorescence readings were taken on an Envision2 plate reader with excitation set at 380 nm and emission at 450 nm.
Controls were taken along containing pyroglutamylated-AMC (Bachem, dissolved at 10 mM in DMSO) instead of H-Gln-AMC to control for pGAPase inhibition.
as §2

[5] = Microsomal stability, human (HLM); assay type: in vitro ADME; conditions: liver microsomes, 0.5 mg protein/mL, 1 µM test compound
Procedure: as §3, §4
Where 45 mg microsomal protein/g liver and 20 g liver/kg human bodyweight were used as standardized parameters for human microsomes.

Kinetic solubility = assay type: physicochemical; conditions: aqueous buffer; 50 mM phosphate buffer (pH 7.4), 24 hours at room temperature
Procedure: To assess the solubility of test compounds 10 µL of a 10 mM solution in DMSO was added to the lower chamber of a whatman miniuniprep (PTFE Filter Media with Polypropylene Housing) vial. 490 µL of 50 mM phosphate buffer (pH 7.4) was added to the lower chamber, the samples were vortexed for at least two minutes and then shaken on a shaker for 24 hours at room temperature at the speed of 880 rpm. The samples were then centrifuged for 20 minutes at 4000 rpm, compressed and the filtrates were injected into a HPLC-UV and LC-MS/MS system to calculate the concentration compared to the standard curve using a ACQUITY UPLC BEH C18 1.7 µm 2.1 * 50 mm column.

T2 sequence (Q16769 33-361): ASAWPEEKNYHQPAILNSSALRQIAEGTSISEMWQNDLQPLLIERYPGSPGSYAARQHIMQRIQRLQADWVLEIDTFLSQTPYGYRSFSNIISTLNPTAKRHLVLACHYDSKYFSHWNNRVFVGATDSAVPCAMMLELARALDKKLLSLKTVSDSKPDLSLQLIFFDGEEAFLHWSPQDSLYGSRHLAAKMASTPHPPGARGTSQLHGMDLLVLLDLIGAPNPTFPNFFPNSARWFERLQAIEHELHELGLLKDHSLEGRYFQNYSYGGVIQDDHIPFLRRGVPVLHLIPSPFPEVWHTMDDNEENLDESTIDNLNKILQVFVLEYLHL
T1 sequence (Q9NXS2 53-382): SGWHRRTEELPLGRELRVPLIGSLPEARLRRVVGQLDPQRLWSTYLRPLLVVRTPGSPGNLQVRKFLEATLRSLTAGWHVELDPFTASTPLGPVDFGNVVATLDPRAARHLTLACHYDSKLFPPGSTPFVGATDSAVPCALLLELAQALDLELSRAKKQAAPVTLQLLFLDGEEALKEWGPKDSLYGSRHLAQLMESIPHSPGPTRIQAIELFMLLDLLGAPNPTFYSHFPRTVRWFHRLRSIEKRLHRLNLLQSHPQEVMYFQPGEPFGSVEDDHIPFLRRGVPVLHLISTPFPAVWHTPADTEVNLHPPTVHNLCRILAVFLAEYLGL

In the case of `O=C1OCC(c2cc(F)cc(C(F)(F)F)c2)N1c1ccc2[nH]cnc2c1` (single isomer, unassigned) [(17)-ent2], the IC50 (human isoQC) is reported as 632 nM, the CLint scaled at 1 µM [1] is reported as < 0.828 L/h/kg and the Papp A→B at 2 h, 2 µM ([2]; Caco-2, pH 7.4, A2B) is reported as 15 nm/s. For the same compound, the Papp B→A at 2 h, 2 µM ([2]; Caco-2, pH 7.4, B2A) was 368 nm/s, the CLint scaled at 1 µM [3] was 10.9 L/h/kg and the CLint scaled at 1 µM [4] was 2.94 L/h/kg. For the same compound, the IC50 (recombinant QC enzyme) was 1080 nM, the CLint scaled at 1 µM [5] was < 0.516 L/h/kg and the solubility at 24 h (Kinetic solubility) was 39 µM (≈ 14.2 µg/mL).
